PMC11157767 (Molecular Cancer, 2024)

System: TFG-MET allograft tumors
Test: RNA-sequencing, differential expression and GSEA of TFG-MET allograft tumors
Type: in vivo, mouse
Conditions: RNA-sequencing of treated allograft tumors
Experimental: Error bars display standard error of mean, statistical significance was determined using t-test analysis. (****;p<0.0001, ***;p<0.001, **;p<0.01, *;p<0.05). […] Each dot represents an individual replicate. Error bars display standard error of the mean.
Each dot represents one gene.

With `C[C@@H](Oc1cc(-c2cnn(C3CCNCC3)c2)cnc1N)c1c(Cl)ccc(F)c1Cl` [Crizotinib] the “expression of Mapk signature genes in tumors” value was “more heterogenous expression”.
